# Results taken from patent US20200163342A1, “MIXTURES COMPRISING A BIOPESTICIDE AND A NITRIFICATION INHIBITOR” (BASF SE, priority 2017, published 2020).
# Bridge positions count the residues as written; N and C are the ends. Square brackets hold non-standard residues; d marks the D form. Peptide text beside a SMILES is read from it. * marks the point of attachment. ξ: configuration not given here. Pentadecanoyl(3ξ-OH,15-Gua) = N=C(N)NCCCCCCCCCCCCC(O)CC(=O)*; d(aThr) = C[C@@H](O)[C@@H](N)C(=O)O; Thr(3ξ) = CC(O)[C@H](N)C(=O)O; ξY = NC(Cc1ccc(O)cc1)C(=O)O
# Columns and labels:
# [1] = test system: soybean (Glycine max 'Sultana'); assay: Greenhouse detection of plant biomass (fresh weight), soybean; format: in vivo; settings: 17 days after start, with AS liquid, DMPSA 1% of NH4-N where present
# Protocol: (§1) Plants were generally grown under standard green house conditions (20° C. and 60% humidity) using standard greenhouse soil (mixture of peat, loam and sand). Therefore, 0.4 g of ryegrass seeds (Lolium perennes ‘Chagall’), 1 soybean seed (Glycine max ‘Sultana’) or 1 grape vine live stack (Vitis vinifer ssp. ‘Sativa’) were grown per pot (8.4 cm for ryegrass, soybean; 13 cm for grape vine) in a completely randomized set-up. Following a growth period of ten days (ryegrass), 14 days (soybean) or approx. 21 days, until the main shoot reached a length of 20 cm (grape vine), plants were designated for experimental usage.
# Detection of ryegrass and soybean biomass (fresh weight) was determined gravitometricallly. Therefore, plants were cut using a hand held lawn cutter (ryegrass) or garden shears (soybean) 1 cm above the soil. Given ryegrass data represent the mean value of respective replicates summed up for 3 cuttings. For experiments using ryegrass, evaluations were conducted 5, 12 and 17 days after start of the experiment. For experiments using soybean, biomass evaluation was conducted 17 days after experimental start.
# (§2) In Table N1, the weight ratio between DMPSA and Histick Super is 3.65:1, the weight ratio between DMPSA and Hicoat is 10.43:1.
# [2] = test system: N2O emissions from soils; assay: Greenhouse detection of nitrous oxide losses (N2O emission), soybean pots; format: in vivo, Glycine max 'Sultana'; settings: DMPSA 1% of NH4-N where present
# Protocol: as §1
# On application day (DATO), each pot (with/without plants) was set onto a plant saucer designed with an inner compartment for the pot and an outer ring that is filled with water. At time 0, water holding capacity of the soil was set to 60-70% prior to application with/without fertilizer and active ingredient. Subsequently, a gas sampling chamber was placed over the plant saucer such that the rim fit into the ring filled with water to create a gas-tight chamber and 25 cc air from the chamber were drawn into a syringe and immediately emptied in to a Vacutainer (Labco, 12 ml volume). This equals the Time 0 measurement for each pot. The same procedure was performed with all pots in the experiment. After two hour incubation time, again 25 cc air samples were taken from the gas chambers and emptied into Vacutainers as described above. Plants were then returned to their positions in the climate chamber. The procedure was repeated at precisely the same time of day for up to 19 days.
# Samples were analyzed in a Shimadzu 2014 GC equipped with an ECD system.
# as §2
# [3] = test system: grape vine (Vitis vinifer ssp. 'Sativa'); assay: Greenhouse shoot elongation, grape vine; format: in vivo; settings: grape vine main shoot elongation, 17 days after start; DMPSA 1% of NH4-N, VitoVin 12481 g/ha
# Protocol: as §1
# For experiments using grape vine, elongation of the main shoot was measured metrically 17 days after experimental start.
# In Table N2, the weight ratio between DMPSA and VitoVin is 1:5.6.
# [4] = test system: cultured parsley cells; settings: WO2006/016558; EP1 788 074 A1; cited from earlier work
# [5] = test system: Fusarium oxysporum; settings: WO2006/016558; EP1 788 074 A1; cited from earlier work
# [6] = test system: Fusarium oxysporum, Aspergillus niger, Aspergillus oryzae, and Penicillum thomii; settings: J. Antibiotics 49(2), 129-135, 1996; 50(3), 220-228, 1997; cited from earlier work
# [7] = test system: clinically relevant fungi and gram-positive bacteria such a Staphylococcus aureus; settings: variety of clinically relevant fungi and gram-positive bacteria; ChemMedChem 7, 871-882, 2012; cited from earlier work
# [8] = test system: Fusarium moniliforme, F. oxysporum, F. roseum, Giberella fujkuroi, Helminthosporium sesamum and Penicillium expansum; settings: J. Antibiotics 40(11), 1506-1514, 1987; cited from earlier work
compound,measurement,setting,value
"2-(3,4-dimethyl-1H-pyrazol-1-yl)succinic acid (DMPSA1) and/or 2-(4,5-dimethyl-1H-pyrazol-1-yl)succinic acid (DMPSA2)",Biomass increase [% of fertilized control],[1],83 % of fertilized control
same,net Biomass increase,[1],-2.47 g
same,N2O emission ppb,"[2]; with AS liquid (ammonium sulfate, 219000 g/ha NH4-N)",38 ppb
same,N2O emission ppb net emission,[2]; with AS liquid,38 ppb
same,% inhibition (N2O emission),"[2]; with AS liquid, relative to soybean untreated + AS liquid",19%
same,relative Growth increase [% of control],[3],104 % of control
CC(C)[C@@H]1NC(=O)[C@@H](C(C)C)NC(=O)[C@@H](NC(=O)CC(O)CCCCCCCCCCCCN=C(N)N)C(C)OC(=O)[C@@H](C)NC(=O)[C@@H](CCC(N)=O)NC(=O)[C@@H]([C@H](C)O)NC1=O (stereo in doubt) [fusaricidin B],induction of resistance reactions in cultured parsley cells,[4],induce resistance reactions
same,inhibition of growth of Fusarium oxysporum,[5],inhibit growth
same,inhibition of plant pathogenic fungi,[6],inhibit plant pathogenic fungi
"CC(C)[C@@H]1NC(=O)[C@@H](C(C)C)NC(=O)[C@@H](NC(=O)CC(O)CCCCCCCCCCCCN=C(N)N)[C@@H](C)OC(=O)[C@@H](C)NC(=O)[C@@H](CC(N)=O)NC(=O)[C@@H]([C@@H](C)O)NC1=O (stereo partly drawn) [fusaricidin A] ({Pentadecanoyl(3ξ-OH,15-Gua)}-T[dV]V[d(aThr)][dN][dA]; ester 1-C)",induction of resistance reactions in cultured parsley cells,[4],induce resistance reactions
same,inhibition of growth of Fusarium oxysporum,[5],inhibit growth
same,MIC value range,[7],0.78 to 3.12 µg/mL
same,inhibition of plant pathogenic fungi,[6],inhibit plant pathogenic fungi
"CC1OC(=O)[C@@H](C)NC(=O)[C@@H](CC(N)=O)NC(=O)[C@@H]([C@H](C)O)NC(=O)C(Cc2ccc(O)cc2)NC(=O)[C@@H](C(C)C)NC(=O)[C@H]1NC(=O)CC(O)CCCCCCCCCCCCN=C(N)N (stereo partly drawn) [fusaricidin C] ({Pentadecanoyl(3ξ-OH,15-Gua)}-[Thr(3ξ)][dV][ξY][dT][dN][dA]; ester 1-C)",inhibition of plant pathogenic fungi,[6],inhibit plant pathogenic fungi
"CC1OC(=O)[C@@H](C)NC(=O)[C@@H](CCC(N)=O)NC(=O)[C@@H]([C@H](C)O)NC(=O)C(Cc2ccc(O)cc2)NC(=O)[C@@H](C(C)C)NC(=O)[C@H]1NC(=O)CC(O)CCCCCCCCCCCCN=C(N)N (stereo partly drawn) [fusaricidin D] ({Pentadecanoyl(3ξ-OH,15-Gua)}-[Thr(3ξ)][dV][ξY][dT][dQ][dA]; ester 1-C)",inhibition of plant pathogenic fungi,[6],inhibit plant pathogenic fungi
fusaricidin LI-F05,antifungal activity against various plant pathogenic fungi,[8],certain antifungal activity
fusaricidin LI-F07,antifungal activity against various plant pathogenic fungi,[8],certain antifungal activity
fusaricidin LI-F08,antifungal activity against various plant pathogenic fungi,[8],certain antifungal activity
